Values of other authors as cited in patent US9974839B2, “Self-assembled toroidal-spiral particles and manufacture and uses thereof” (THE BOARD OF TRUSTEES OF THE UNIVERSITY OF ILLINOIS, priority 2009, dated 2018).

Test system: mitogenic activity
Conditions: in vitro

mono-PEGylated epidermal growth factor (EGF) with PEG 3400 at Lys28 and Lys48: literature EGF mono-PEGylated with PEG 3400 at Lys28 and Lys48 (ref. 28) (NSDSECPLSHDGYCLHDGVCMYIEALDKYACNCVVGYIGERCQYRDLKWWELR; Epidermal growth factor PEG 3400; UniProt P01133 971-1023, looked up)
mitogenic activity relative to EGF isomer PEGylated at the amino terminus: significantly less active
